Reference: ChEMBL document CHEMBL1156481, “Enzymatic therapeutic index of acyclovir. Viral versus human polymerase gamma specificity” (J Biol Chem, 2007)

What was measured:
Human alphaherpesvirus 1 [1] = experiment: Polymerizing activity of exonuclase deficient HSV1 DNA polymerase UL42 D368A mutant assessed as rate of nucleotide incorporation by pre-steady state single turnover assay
Human alphaherpesvirus 1 [2] = experiment: Ratio of polymerization constant K to Kd for exonuclase deficient HSV1 DNA polymerase UL42 D368A mutant
[3] = Binding affinity to exonuclase deficient HSV1 DNA polymerase UL42 D368A mutant; parameters: species or system Human alphaherpesvirus 1
[4] = system: T1, DNA polymerase subunit gamma-1 (Homo sapiens), P54098 [E200A]; experiment: Polymerizing activity of exonuclase deficient human recombinant DNA polymerase gamma E200A mutant assessed as rate of nucleotide incorporation by pre-steady state single nucleotide incorporation assay
T1 sequence (whole entry): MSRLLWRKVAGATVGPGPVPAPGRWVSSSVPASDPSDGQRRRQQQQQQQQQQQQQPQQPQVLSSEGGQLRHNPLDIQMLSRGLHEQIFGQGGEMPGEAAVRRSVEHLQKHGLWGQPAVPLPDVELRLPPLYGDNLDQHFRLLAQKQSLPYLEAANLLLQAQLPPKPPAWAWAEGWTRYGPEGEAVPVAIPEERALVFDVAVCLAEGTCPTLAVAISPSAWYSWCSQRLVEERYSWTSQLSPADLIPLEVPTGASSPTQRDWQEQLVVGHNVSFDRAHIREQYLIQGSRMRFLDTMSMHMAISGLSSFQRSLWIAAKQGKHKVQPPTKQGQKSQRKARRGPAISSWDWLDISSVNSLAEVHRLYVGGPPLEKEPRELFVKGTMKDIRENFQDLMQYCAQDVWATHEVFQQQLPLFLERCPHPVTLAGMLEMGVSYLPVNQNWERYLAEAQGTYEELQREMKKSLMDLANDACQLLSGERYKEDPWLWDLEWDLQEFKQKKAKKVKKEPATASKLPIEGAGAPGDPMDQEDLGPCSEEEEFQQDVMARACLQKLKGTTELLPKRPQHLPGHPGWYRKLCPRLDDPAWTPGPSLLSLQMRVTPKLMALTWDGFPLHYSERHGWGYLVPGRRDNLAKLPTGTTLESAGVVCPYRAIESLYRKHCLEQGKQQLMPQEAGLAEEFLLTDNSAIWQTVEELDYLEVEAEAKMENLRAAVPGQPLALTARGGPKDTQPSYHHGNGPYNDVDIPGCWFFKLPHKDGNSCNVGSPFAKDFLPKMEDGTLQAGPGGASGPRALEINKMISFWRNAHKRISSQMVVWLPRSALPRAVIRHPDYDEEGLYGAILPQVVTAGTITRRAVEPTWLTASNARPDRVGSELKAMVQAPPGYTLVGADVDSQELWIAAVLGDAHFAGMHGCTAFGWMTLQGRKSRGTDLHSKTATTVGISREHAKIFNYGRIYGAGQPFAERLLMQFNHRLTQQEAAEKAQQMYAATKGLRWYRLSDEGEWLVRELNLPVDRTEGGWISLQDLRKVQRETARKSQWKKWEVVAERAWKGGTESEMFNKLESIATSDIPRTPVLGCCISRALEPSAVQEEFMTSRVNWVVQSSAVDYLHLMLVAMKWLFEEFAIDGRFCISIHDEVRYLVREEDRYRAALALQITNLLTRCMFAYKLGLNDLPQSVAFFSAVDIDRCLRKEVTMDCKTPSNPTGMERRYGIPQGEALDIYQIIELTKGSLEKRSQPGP

[5] = system: T1, DNA polymerase subunit gamma-1 (Homo sapiens), P54098 [E200A]; experiment: Ratio of polymerization constant K to Kd for human recombinant DNA polymerase gamma E200A mutant
[6] = molecular target: DNA polymerase subunit gamma-1 (Homo sapiens, UniProt P54098, E200A); experiment: Binding affinity to exonuclase deficient human recombinant DNA polymerase gamma E200A mutant
Human alphaherpesvirus 1 [7] = experiment: Activity of wild type HSV1 DNA polymerase UL42 assessed as rate of excision of compound from correctly paired DNA primer during fast phase of excision
Human alphaherpesvirus 1 [8] = experiment: Activity of wild type HSV1 DNA polymerase UL42 assessed as amplitude of excision of compound from correctly paired DNA primer during fast phase of excision
Human alphaherpesvirus 1 [9] = experiment: Activity of wild type HSV1 DNA polymerase UL42 assessed as rate of excision of compound from correctly paired DNA primer during slow phase of excision
Human alphaherpesvirus 1 [10] = experiment: Activity of wild type HSV1 DNA polymerase UL42 assessed as amplitude of excision of compound from correctly paired DNA primer during slow phase of excision
Human alphaherpesvirus 1 [11] = experiment: Activity of wild type HSV1 DNA polymerase UL42 assessed as rate of excision of compound from 3'-frayed DNA primer with 8 mispaired bases at 3' end during fast phase of excision
Human alphaherpesvirus 1 [12] = experiment: Activity of wild type HSV1 DNA polymerase UL42 assessed as amplitude of excision of compound from 3'-frayed DNA primer with 8 mispaired bases at 3' end during fast phase of excision
Human alphaherpesvirus 1 [13] = experiment: Activity of wild type HSV1 DNA polymerase UL42 assessed as rate of excision of compound from 3'-frayed DNA primer with 8 mispaired bases at 3' end during slow phase of excision
Human alphaherpesvirus 1 [14] = experiment: Activity of wild type HSV1 DNA polymerase UL42 assessed as amplitude of excision of compound from 3'-frayed DNA primer with 8 mispaired bases at 3' end during slow phase of excision
Homo sapiens [15] = organism: Homo sapiens; experiment: Activity of human wild type DNA polymerase gamma assessed as rate of excision of compound from correctly paired DNA primer during fast phase of excision
Homo sapiens [16] = organism: Homo sapiens; experiment: Activity of human wild type DNA polymerase gamma assessed as amplitude of excision of compound from correctly paired DNA primer during fast phase of excision
Homo sapiens [17] = organism: Homo sapiens; experiment: Activity of human wild type DNA polymerase gamma assessed as rate of excision of compound from correctly paired DNA primer during slow phase of excision
Homo sapiens [18] = organism: Homo sapiens; experiment: Activity of human wild type DNA polymerase gamma assessed as amplitude of excision of compound from correctly paired DNA primer during slow phase of excision
Homo sapiens [19] = organism: Homo sapiens; experiment: Activity of human wild type DNA polymerase gamma assessed as rate of excision of compound from 3'-frayed DNA primer with 8 mispaired bases at 3' end during fast phase of excision
Homo sapiens [20] = organism: Homo sapiens; experiment: Activity of human wild type DNA polymerase gamma assessed as amplitude of excision of compound from 3'-frayed DNA primer with 8 mispaired bases at 3' end during fast phase of excision
Homo sapiens [21] = organism: Homo sapiens; experiment: Activity of human wild-type DNA polymerase gamma assessed as rate of excision of compound from 3'-frayed DNA primer with 8 mispaired bases at 3' end during slow phase of excision
Homo sapiens [22] = organism: Homo sapiens; experiment: Activity of human wild-type DNA polymerase gamma assessed as amplitude of excision of compound from 3'-frayed DNA primer with 8 mispaired bases at 3' end during slow phase of excision
Human alphaherpesvirus 1 [23] = experiment: Activity of wild type HSV1 DNA polymerase UL42 assessed as rate of excision of compound from correctly paired DNA primer during fast phase of excision in presence of 100 uM dNTPs
Human alphaherpesvirus 1 [24] = experiment: Activity of wild type HSV1 DNA […] UL42 assessed as amplitude of excision of compound from correctly paired DNA primer during fast phase of excision in presence of 100 uM dNTPs
Human alphaherpesvirus 1 [25] = experiment: Activity of wild type HSV1 DNA polymerase UL42 assessed as rate of excision of compound from 3'-frayed DNA primer with 8 mispaired bases at 3' end during fast phase of excision in presence of 100 uM dNTPs
Human alphaherpesvirus 1 [26] = experiment: Activity of wild type HSV1 DNA polymerase UL42 assessed as amplitude of excision of compound from 3'-frayed DNA primer with 8 mispaired bases at 3' end during fast phase of excision in presence of 100 uM dNTPs
Homo sapiens [27] = organism: Homo sapiens; experiment: Activity of human wild-type DNA polymerase gamma assessed as rate of excision of compound from correctly paired DNA primer during fast phase of excision in presence of 100 uM dNTPs
Homo sapiens [28] = organism: Homo sapiens; experiment: Activity of human wild type DNA polymerase gamma assessed as amplitude of excision of compound from correctly paired DNA primer during fast phase of excision in presence of 100 uM dNTPs
Homo sapiens [29] = organism: Homo sapiens; experiment: Activity of human wild type DNA polymerase gamma assessed as rate of excision of compound from 3'-frayed DNA primer with 8 mispaired bases at 3' end during fast phase of excision in presence of 100 uM dNTPs
Homo sapiens [30] = organism: Homo sapiens; experiment: Activity of human wild type DNA polymerase gamma assessed as amplitude of excision of compound from 3'-frayed DNA primer with 8 mispaired bases at 3' end during fast phase of excision in presence of 100 uM dNTPs

Row | Activity (Human alphaherpesvirus 1 [7]) | Activity (Human alphaherpesvirus 1 [8]) | Activity (Human alphaherpesvirus 1 [11]) | Activity (Human alphaherpesvirus 1 [12]) | Activity (Homo sapiens [15]) | Activity (Homo sapiens [16]) | Activity (Homo sapiens [19]) | Activity (Homo sapiens [20]) | Compound | K (Human alphaherpesvirus 1 [1]) | Ratio (Human alphaherpesvirus 1 [2]) | Kd [3] | K [4] | Ratio [5] | Kd [6] | also measured
1 |  |  |  |  |  |  |  |  | Cc1cn([C@H]2C[C@H](O)[C@@H](COP(=O)(O)OP(=O)(O)OP(=O)(O)O)O2)c(=O)[nH]c1=O | 137 s⁻¹ | 45 µM⁻¹ s⁻¹ |  |  |  |  | 
2 |  |  |  |  |  |  |  |  | Nc1nc2c(ncn2COCCOP(=O)(O)OP(=O)(O)OP(=O)(O)O)c(=O)[nH]1 [ACYCLOVIR TRIPHOSPHATE] | 10.1 s⁻¹ | 1.7 µM⁻¹ s⁻¹ | 6 µM | 1.03 s⁻¹ | 0.17 µM⁻¹ s⁻¹ | 6 µM | 
3 | 12 s⁻¹ | 11 nM | 125 s⁻¹ | 65 nM | 0.45 s⁻¹ | 16 nM | 2.6 s⁻¹ | 16 nM | Nc1nc(O)c2ncn([C@H]3C[C@H](O)[C@@H](COP(=O)(O)O)O3)c2n1 |  |  |  |  |  |  | Activity (Human alphaherpesvirus 1 [9]): 0.25 s⁻¹; Activity (Human alphaherpesvirus 1 [10]): 77 nM; Activity (Human alphaherpesvirus 1 [13]): 1.3 s⁻¹; Activity (Human alphaherpesvirus 1 [14]): 24 nM; Activity (Homo sapiens [17]): 0.02 s⁻¹; Activity (Homo sapiens [18]): 74 nM; Activity (Homo sapiens [21]): 0.27 s⁻¹; Activity (Homo sapiens [22]): 27 nM
4 |  |  |  |  |  |  |  |  | Nc1nc2c(ncn2[C@H]2C[C@H](O)[C@@H](COP(=O)(O)OP(=O)(O)OP(=O)(O)O)O2)c(=O)[nH]1 [DEOXYGUANOSINE TRIPHOSPHATE] | 640 s⁻¹ | 80 µM⁻¹ s⁻¹ | 0.8 µM | 37 s⁻¹ | 45 µM⁻¹ s⁻¹ | 0.8 µM | 
5 | 5.1 ×10⁻⁴ /s | 86 nM | > 0.3 s⁻¹ | 90 nM | 2.1 ×10⁻³ /s | 97 nM | 1.3 ×10⁻³ /s | 94 nM | Nc1nc(=O)c2ncn(COCCOP(=O)(O)O)c2[nH]1 |  |  |  |  |  |  | Activity (Human alphaherpesvirus 1 [23]): 2 ×10⁻⁴ /s; Activity (Human alphaherpesvirus 1 [24]): 85 nM; Activity (Human alphaherpesvirus 1 [25]): > 0.3 s⁻¹; Activity (Human alphaherpesvirus 1 [26]): 90 nM; Activity (Homo sapiens [27]): 9.2 ×10⁻⁵ /s; Activity (Homo sapiens [28]): 91 nM; Activity (Homo sapiens [29]): 3 ×10⁻⁴ /s; Activity (Homo sapiens [30]): 90 nM
